In US20240360148A1 (SUVALENT THERAPEUTICS, INC., priority 2021, published 2024):

Molecular target: SAE1 (Homo sapiens (Human), UniProt Q9UBE0+Q9UBT2)
Test: SAE High Throughput Biochemical Assay (HTRF), 15 min preincubation
Conditions: read-out: 15 min preincubation HTRF IC50 (μM) Ave, SAE1 12.5 nM, ATP 100 μM
Method: Assay buffer was prepared [50 mM HEPES, pH 7.5, 0.1% BSA and 10 mM MgCl2] as was the Stop Buffer [100 mM HEPES, pH 7.5, 0.05% Tween20, and 410 mM KF]. The 2×Reaction Buffer [80 nM SUMO-GST, 80 nM UBC9-His, 200 μM ATP and diluted in Assay Buffer] and Antibody Reaction Mix [13.34 nM anti-GSTXL665, 1.66 nM anti-His EuK and Diluted in Stop Buffer] were also prepared. Compounds were dissolved at 200×in DMSO in a 384-well plate. Serial dilutions were performed in DMSO for each compound, and then each concentration was diluted another 50-fold in Assay Buffer, to 4× the final concentration. 2.5 μL of each concentration was transferred into its own well in a 384-well plate. SAE1 was then diluted to 4× in Assay Buffer, and 2.5 μL of 4×SAE1 was mixed into each compound-containing well. After incubating for 15 minutes at RT, 5 μL of 2×Reaction Buffer was mixed into every well. Then after another 45 minutes at RT, 10 μL of Antibody Reaction Mix was added and mixed into every well. This plate was then read on an HTRF-compatible plate reader after 2 hours at RT, and again after sitting at RT overnight. [Final Component Concentrations: SAE1: 12.5 nM; SUMO-GST: 40 nM; UBC9-His: 40 nM; Anti-GST-XL665: 6.67 nM; Anti-His-EuK: 0.83 nM; and ATP: 100 μM] Alternatively, the compounds are tested at a single concentration of 25 micromolar and the percent of control is measured.

Chain of SAE1 (Q9UBE0 whole entry): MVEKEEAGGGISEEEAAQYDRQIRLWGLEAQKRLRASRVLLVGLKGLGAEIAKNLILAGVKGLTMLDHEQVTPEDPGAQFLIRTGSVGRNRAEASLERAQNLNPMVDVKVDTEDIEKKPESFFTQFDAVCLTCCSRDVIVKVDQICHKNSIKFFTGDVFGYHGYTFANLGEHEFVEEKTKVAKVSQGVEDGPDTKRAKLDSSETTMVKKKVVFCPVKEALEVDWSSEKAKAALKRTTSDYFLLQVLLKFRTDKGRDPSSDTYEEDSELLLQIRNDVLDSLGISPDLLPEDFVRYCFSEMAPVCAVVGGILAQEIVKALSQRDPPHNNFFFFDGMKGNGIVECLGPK
Chain of SAE1 (Q9UBT2 whole entry): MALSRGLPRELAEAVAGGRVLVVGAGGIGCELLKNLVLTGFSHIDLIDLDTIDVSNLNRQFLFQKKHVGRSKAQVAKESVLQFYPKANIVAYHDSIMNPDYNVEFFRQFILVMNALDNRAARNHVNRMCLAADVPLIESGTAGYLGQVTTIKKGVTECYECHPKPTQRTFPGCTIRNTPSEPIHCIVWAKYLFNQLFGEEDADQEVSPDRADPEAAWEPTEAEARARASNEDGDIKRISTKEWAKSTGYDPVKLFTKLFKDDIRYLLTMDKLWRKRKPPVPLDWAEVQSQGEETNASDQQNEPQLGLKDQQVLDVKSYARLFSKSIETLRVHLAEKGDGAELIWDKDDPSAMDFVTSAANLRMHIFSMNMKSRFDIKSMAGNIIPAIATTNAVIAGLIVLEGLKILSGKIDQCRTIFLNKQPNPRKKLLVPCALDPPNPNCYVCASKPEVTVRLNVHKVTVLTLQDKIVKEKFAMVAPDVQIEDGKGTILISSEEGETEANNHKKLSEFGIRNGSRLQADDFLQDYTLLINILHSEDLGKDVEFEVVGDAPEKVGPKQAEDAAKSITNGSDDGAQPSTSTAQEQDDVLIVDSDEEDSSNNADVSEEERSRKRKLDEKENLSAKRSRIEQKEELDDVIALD

| SMILES | IC50 [µM] |
| --- | --- |
| CN(C)C/C=C/C(=O)N1Cc2sc(C#N)cc2[C@H](c2ccccc2-c2cn(CCC(=O)O)nc2C(F)(F)F)C1 [Example 173, (S, E)-3-(4-(2-(2-Cyano-6-(4-(dimethylamino)but-2-enoyl)-4,5,6,7-tetrahydrothieno[2,3-c]pyridin-4-yl)phenyl)-3-(trifluoromethyl)-1H-pyrazol-1-yl)propanoic acid] | 17.3 |
| CCn1cc(-c2ccccc2[C@@H]2CN(C(=O)/C=C/[C@H]3CCC(C)(C)N3)Cc3sc(C#N)cc32)c(C(F)(F)F)n1 [Example 78, (S)-6-((E)-3-((R)-5,5-Dimethylpyrrolidin-2-yl)acryloyl)-4-(2-(1-ethyl-3-(trifluoromethyl)-1H pyrazol-4-yl)phenyl)-4,5,6,7-tetrahydrothieno[2,3-c]pyridine-2-carbonitrile] | 6 |
| CN(C)C/C=C/C(=O)N1Cc2sc(C#N)cc2[C@H](c2ccccc2-c2cn(CCc3ccccn3)nc2C(F)(F)F)C1 [Example 176, (S, E)-6-(4-(Dimethylamino)but-2-enoyl)-4-(2-(1-(2-(pyridin-2-yl)ethyl)-3-(trifluoromethyl)-1H-pyrazol-4-yl)phenyl)-4,5,6,7-tetrahydrothieno[2,3-c]pyridine-2-carbonitrile] | 19.9 |
| CCn1cc(-c2c(C3CN(C(=O)/C=C/CN(C)C)Cc4sc(C#N)cc43)ccc(F)c2F)c(C(F)(F)F)n1 (centres unmarked) [Example 184, (E)-6-(4-(Dimethylamino)but-2-enoyl)-4-(2-(1-ethyl-3-(trifluoromethyl)-1 H-pyrazol-4-yl)-3,4-difluorophenyl)-4,5,6,7-tetrahydrothieno[2,3-c]pyridine-2-carbonitrile] | 8.37 |
| CN(C)C/C=C/C(=O)N1Cc2sc(C#N)cc2[C@H](c2ccccc2-c2cn(CC(=O)O)nc2C(F)(F)F)C1 [Example 172, (S, E)-2-(4-(2-(2-Cyano-6-(4-(dimethylamino)but-2-enoyl)-4,5,6,7-tetrahydrothieno[2,3-c]pyridin-4-yl)phenyl)-3-(trifluoromethyl)-1H pyrazol-1-yl)acetic acid] | 21.1 |
| CN(C)C/C=C/C(=O)N1Cc2sc(C#N)cc2[C@H](c2ccccc2-c2cn(-c3ccnc(N)c3)nc2C(F)(F)F)C1 [Example 160, (S, E)-4-(2-(1-(2-Aminopyridin-4-yl)-3-(trifluoromethyl)-1 H-pyrazol-4-yl)phenyl)-6-(4-(dimethylamino)but-2-enoyl)-4,5,6,7-tetrahydrothieno[2,3-c]pyridine-2-carbonitrile] | 24.4 |
| CCn1cc(-c2cc(CO)ccc2C2CN(C(=O)/C=C/CN(C)C)Cc3sc(C#N)cc32)c(C(F)(F)F)n1 (centres unmarked) [Example 194, (E)-6-(4-(Dimethylamino)but-2-enoyl)-4-(2-(1-ethyl-3-(trifluoromethyl)-1 H-pyrazol-4-yl)-4-(hydroxymethyl)phenyl)-4,5,6,7-tetrahydrothieno[2,3-c]pyridine-2-carbonitrile] | > 25 |
| CN[C@@H](C)/C=C/C(=O)N1Cc2sc(C#N)c(C)c2[C@H](c2cccc(F)c2-c2cn(C)nc2C(F)(F)F)C1 [Example 219, (S)-4-(3-fluoro-2-(1-methyl-3-(trifluoromethyl)-1 H-pyrazol-4-yl)phenyl)-3-methyl-6-((S, E)-4-(methylamino)pent-2-enoyl)-4,5,6,7-tetrahydrothieno[2,3-c]pyridine-2-carbonitrile] | 1.01 |
| CCn1cc(-c2cc(C)ccc2C2CN(C(=O)/C=C/CN(C)C)Cc3sc(C#N)cc32)c(C(F)(F)F)n1 (centres unmarked) [Example 210, (E)-6-(4-(Dimethylamino)but-2-enoyl)-4-(2-(1-ethyl-3-(trifluoromethyl)-1 H pyrazol-4-yl)-4-methylphenyl)-4,5,6,7-tetrahydrothieno[2,3-c]pyridine-2-carbonitrile] | 19.7 |
| CCn1cc(-c2cc(NC(=O)NC)ccc2C2CN(C(=O)/C=C/CN(C)C)Cc3sc(C#N)cc32)c(C(F)(F)F)n1 (centres unmarked) [Example 195, (E)-1-(4-(2-Cyano-6-(4-(dimethylamino)but-2-enoyl)-4,5,6,7-tetrahydrothieno[2,3-c]pyridin-4-yl)-3-(1-ethyl-3-(trifluoromethyl)-1 H-pyrazol-4-yl)phenyl)-3-methylurea] | 11.3 |
| CN(C)C/C=C/C(=O)N1Cc2sc(C#N)cc2[C@H](c2ccccc2-c2cn(CC(F)F)nc2C(F)(F)F)C1 [Example 18, (S,E)-4-(2-(1-(2,2-difluoroethyl)-3-(trifluoromethyl)-1 H-pyrazol-4-yl)phenyl)-6-(4-(dimethylamino)but-2-enoyl)-4,5,6,7-tetrahydrothieno[2,3-c]pyridine-2-carbonitrile] | 8.99 |
| CN(C)C/C=C/C(=O)N1Cc2sc(C#N)cc2[C@H](c2ccccc2-c2cn(CCc3ccncc3)nc2C(F)(F)F)C1 [Example 177, (S,E)-6-(4-(Dimethylamino)but-2-enoyl)-4-(2-(1-(2-(pyridin-4-yl)ethyl)-3-(trifluoromethyl)-1H pyrazol-4-yl)phenyl)-4,5,6,7-tetrahydrothieno[2,3-c]pyridine-2-carbonitrile] | 6.3 |
| CCn1cc(-c2cc(NC(C)=O)ccc2C2CN(C(=O)/C=C/CN(C)C)Cc3sc(C#N)cc32)c(C(F)(F)F)n1 (centres unmarked) [Example 197, (E)-N-(4-(2-Cyano-6-(4-(dimethylamino)but-2-enoyl)-4,5,6,7-tetrahydrothieno[2,3-c]pyridin-4-yl)-3-(1-ethyl-3-(trifluoromethyl)-1 H-pyrazol-4-yl)phenyl)acetamide] | 15.2 |
| CCn1cc(-c2ccccc2[C@@H]2CN(C(=O)/C=C/C3COCCN3)Cc3sc(C#N)cc32)c(C(F)(F)F)n1 (stereo partly drawn) [Example 76, (4S)-4-(2-(1-Ethyl-3-(trifluoromethyl)-1 H-pyrazol-4-yl)phenyl)-6-((E)-3-(morpholin-3-yl)acryloyl)-4,5,6,7-tetrahydrothieno[2,3-c]pyridine-2-carbonitrile] | 14.7 |
| CCn1cc(-c2cc(F)ccc2C2CN(C(=O)/C=C/CN(C)C)Cc3sc(C#N)cc32)c(C(F)(F)F)n1 (centres unmarked) [Example 211, (E)-6-(4-(Dimethylamino)but-2-enoyl)-4-(2-(1-ethyl-3-(trifluoromethyl)-1 H-pyrazol-4 yl)-4-fluorophenyl)-4,5,6,7-tetrahydrothieno[2,3-c]pyridine-2-carbonitrile] | 20.2 |
| CCn1cc(-c2ccccc2[C@@H]2CN(C(=O)/C=C/CN3CCC(c4ccccc4)C3)Cc3sc(C#N)cc32)c(C(F)(F)F)n1 (stereo partly drawn) [Example 35, (4S)-4-(2-(1-ethyl-3-(trifluoromethyl)-1 H-pyrazol-4-yl)phenyl)-6-((E)-4-(3-phenylpyrrolidin-1-yl)but-2-enoyl)-4,5,6,7-tetrahydrothieno[2,3-c]pyridine-2-carbonitrile] | > 25 |
| CCn1cc(-c2c(C3CN(C(=O)/C=C/CN(C)C)Cc4sc(C#N)cc43)cnn2C)c(C(F)(F)F)n1 (centres unmarked) [Example 198, (E)-6-(4-(Dimethylamino)but-2-enoyl)-4-(1′-ethyl-2-methyl-3′-(trifluoromethyl)-1′H,2H-[3,4′-bipyrazol]-4-yl)-4,5,6,7-tetrahydrothieno[2,3-c]pyridine-2-carbonitrile] | > 25 |
| CCn1cc(-c2c(F)cccc2[C@@H]2CN(C(=O)/C=C/CN[C@H]3CCOC3)Cc3sc(C#N)cc32)c(C(F)(F)F)n1 [Example 56, (S)-4-(2-(1-ethyl-3-(trifluoromethyl)-1 H-pyrazol-4-yl)-3-fluorophenyl)-6-((E)-4-(((S)-tetrahydrofuran-3-yl)amino)but-2-enoyl)-4,5,6,7-tetrahydrothieno[2,3-c]pyridine-2-carbonitrile] | 1.09 |
| CCOC(=O)CCCn1cc(-c2ccccc2[C@@H]2CN(C(=O)/C=C/CN(C)C)Cc3sc(C#N)cc32)c(C(F)(F)F)n1 [Example 171] | 12 |
| CN(C)C/C=C/C(=O)N1Cc2sc(C#N)cc2[C@H](c2ccccc2-c2cn(CCCC(=O)O)nc2C(F)(F)F)C1 [Example 174, (S, E)-4-(4-(2-(2-Cyano-6-(4-(dimethylamino)but-2-enoyl)-4,5,6,7-tetrahydrothieno[2,3-c]pyridin-4-yl)phenyl)-3-(trifluoromethyl)-1H pyrazol-1-yl)butanoic acid] | 12.5 |
| C=C(C(=O)N1Cc2sc(C#N)cc2[C@H](c2ccccc2-c2cn(CC)nc2C(F)(F)F)C1)c1ccccc1 [Example 63, (S)-4-(2-(1-Ethyl-3-(trifluoromethyl)-1H pyrazol-4-yl)phenyl)-6-(2-phenylacryloyl)-4,5,6,7-tetrahydrothieno[2,3-c]pyridine-2-carbonitrile] | > 25 |
| CCn1cc(-c2sccc2C2CN(C(=O)/C=C/CN(C)C)Cc3sc(C#N)cc32)c(C(F)(F)F)n1 (centres unmarked) [Example 207, (E)-6-(4-(Dimethylamino)but-2-enoyl)-4-(2-(1-ethyl-3-(trifluoromethyl)-1H pyrazol-4-yl)thiophen-3-yl)-4,5,6,7-tetrahydrothieno[2,3-c]pyridine-2-carbonitrile] | > 25 |
| CCn1cc(-c2ccccc2[C@@H]2CN(C(=O)C#CCN3CCN(C)CC3)Cc3sc(C#N)cc32)c(C(F)(F)F)n1 [Example 143, (S)-4-(2-(1-Ethyl-3-(trifluoromethyl)-1 H pyrazol-4-yl)phenyl)-6-(4-(4-methylpiperazin-1-yl)but-2-ynoyl)-4,5,6,7-tetrahydrothieno[2,3-c]pyridine-2-carbonitrile] | 2.18 |
